This is an account of results in patent publication US20210267983A1, “COMBINATIONS OF PPAR AGONISTS AND P38 KINASE INHIBITORS FOR PREVENTING OR TREATING FIBROTIC DISEASES” (KINARUS AG, priority 2018, published 2021).

The test system of data set [1] is cytokines and chemokines of the interleukin, TNF, C-C and C-X-C motif families. The note with it: for adjusted significance (p) value, C-C Motif Chemokine Ligand 2 (Ccl2) / adjusted significance (p) value, C-C Motif Chemokine Ligand 3 (Ccl3) / adjusted significance (p) value, C-C Motif Chemokine Ligand 4 (Ccl4) / adjusted significance (p) value, C-C Motif Chemokine Ligand 7 (Ccl7) / adjusted significance (p) value, C-C Motif Chemokine Ligand 8 (Ccl8) / adjusted significance (p) value, C-C Motif Chemokine Ligand 12 (Ccl12) / adjusted significance (p) value, C-C Motif Chemokine Ligand 24 (Ccl24) / adjusted significance (p) value, C-X-C Motif Chemokine Ligand 3 (Cxcl3) / adjusted significance (p) value, C-X-C Motif Chemokine Ligand 5 (Cxcl5) / adjusted significance (p) value, C-X-C Motif Chemokine Ligand 10 (Cxcl10) / adjusted significance (p) value, Interleukin 6 (IL6) / adjusted significance (p) value, Interleukin 11 (IL11) / adjusted significance (p) value, Interleukin 12B (IL12b) / adjusted significance (p) value, Interleukin 18 Receptor 1 (IL18r1) / adjusted significance (p) value, TNF Receptor Superfamily Member 10b (Tnfrsf10b) / adjusted significance (p) value, TNF Receptor Superfamily Member 11b (Tnfrsf11b) / adjusted significance (p) value, TNF Superfamily Member 9 (Tnfsf9) / adjusted significance (p) value, TNF Superfamily Member 18 (Tnfsf18) / adjusted significance (p) value, Interleukin 36 Gamma (IL1f9) / adjusted significance (p) value, TNF Superfamily Member 15 (Tnfsf15): lung expression vs bleomycin alone group; for adjusted significance (p) value, C-C Motif Chemokine Ligand 2 (Ccl2) / adjusted significance (p) value, C-C Motif Chemokine Ligand 3 (Ccl3) / adjusted significance (p) value, C-C Motif Chemokine Ligand 4 (Ccl4) / adjusted significance (p) value, C-C Motif Chemokine Ligand 7 (Ccl7) / adjusted significance (p) value, C-C Motif Chemokine Ligand 8 (Ccl8) / adjusted significance (p) value, C-C Motif Chemokine Ligand 12 (Ccl12) / adjusted significance (p) value, C-C Motif Chemokine Ligand 24 (Ccl24) / adjusted significance (p) value, C-X-C Motif Chemokine Ligand 3 (Cxcl3) / adjusted significance (p) value, C-X-C Motif Chemokine Ligand 5 (Cxcl5) / adjusted significance (p) value, C-X-C Motif Chemokine Ligand 10 (Cxcl10) / adjusted significance (p) value, Interleukin 6 (IL6) / adjusted significance (p) value, Interleukin 11 (IL11) / adjusted significance (p) value, Interleukin 12B (IL12b) / adjusted significance (p) value, Interleukin 18 Receptor 1 (IL18r1) / adjusted significance (p) value, TNF Receptor Superfamily Member 10b (Tnfrsf10b) / adjusted significance (p) value, TNF Receptor Superfamily Member 11b (Tnfrsf11b) / adjusted significance (p) value, TNF Superfamily Member 9 (Tnfsf9) / adjusted significance (p) value, TNF Superfamily Member 18 (Tnfsf18): Direction: downregulated; for adjusted significance (p) value, Interleukin 36 Gamma (IL1f9) / adjusted significance (p) value, TNF Superfamily Member 15 (Tnfsf15): Direction: upregulated; for regulation of expression of members of the interleukin/interleukin receptor, TNF/TNF receptor, C-C and C-X-C motif chemokine families: lung, vs bleomycin alone disease group, significant = adjusted p value <0.10.
Procedure: Global gene expression changes were determined by Illumina Next Generation RNA sequencing in lung samples from the animal study described in Example 1. RNA was extracted from the post caval lobe that had been snap frozen at the termination of the study. For this analysis, 8 samples from each of treatment groups 1-6 (total 48 samples) were analysed. Briefly, total RNA was extracted for next generation sequencing using standard methods, then Illumina TruSeq RNA libraries including poly(A) enrichment were prepared. Sequencing was performed on an Illumina NextSeq 500, v2, high output, 1×75 bp reads with 30 Mio packages. Demultiplexing and trimming of Illumina adaptor residuals was performed on the raw data. Mapping of data reads was made using the reference mouse genome mm10. For bioinformatics analysis, the average expression level and standard deviations were determined for each gene for the 8 replicates per treatment group. Pairwise comparisons between groups were then performed to identify differentially expressed genes. Absolute p-values and adjusted p-values, to correct for multiplicity of testing, were calculated for each pairwise analysis.

For data set [2], the system named is bleomycin-induced pulmonary fibrosis. As to the kind of experiment: 21-day model of bleomycin-induced pulmonary fibrosis in mice. The class given is in vivo. The conditions noted are these: day 21, oral gavage QD, 25 mg/kg pioglitazone, 100 mg/kg pamapimod, alone or in combination, p<0.05, t test; for lung weights normalized to body weights: vs. group 2 (bleomycin + vehicle); for fibrosis, group mean fibrotic index (modified Ashcroft score): vs. group 2 (fibrotic index 4.8). The procedure: Male C57BL/6 mice, six to seven weeks of age, were used for this study. Animals were weighed one day prior to study initiation and 60 animals were randomized into 6 groups (N=10/group) such that mean body weights were similar for the different groups. Food and water were provided ad libitum, with a 12-hour light/dark cycle.
Treatment in groups 2-6 was initiated one day prior to bleomycin administration and continued though to the study end on day 21. On day -1, animals were dosed via oral gavage with vehicle control (0.5% methylcellulose; group 1 and group 2), pioglitazone at 25 mg/kg/dose (group 3), pamapimod at 100 mg/kg/dose (group 4), pioglitazone at 25 mg/kg/dose and pamapimod at 100 mg/kg/dose (group 5), pirfenidone at 100mg/kg/dose (group 6) and continued for 21 days. Pioglitazone and pamapimod were dosed once daily (QD) and pirfenidone was dosed twice daily (BID). On day 0, all mice in groups 2-6 received a single instillation of bleomycin to induce pulmonary fibrosis. Animals in group 1 (dosed with vehicle from days-1 to 21) were not instilled with bleomycin, but instead received a single dose of saline, and were considered sham negative control mice. Final drug treatments were administered 2-4 hours prior to study termination on day 21.
Body weights, absolute lung weights, and lung weights normalized to body weights were measured for all mice on day 21 after bleomycin instillation, and were compared to bleomycin-instilled vehicle treated control mice. The post-caval lobes from the right lung were collected and snap frozen. The remaining lungs were fixed in 10% NBF and underwent histopathology analysis and evaluated for eseverity of fibrosis using a modified Ashcroft score.
Vehicle (0.5% methylcellulose) and compounds were prepared weekly and stored at room temperature in the dark. All mice were dosed starting on day-1 until study termination on day 21 with a volume of 200 μl of vehicle or test compounds QD by oral gavage or 100 μl of pirfenidone BID by oral gavage. For groups receiving both pirfenidone and test compounds, pirfenidone was dosed 100 μl BID and test compounds were delivered in a total volume of 100 μl QD. […]
The lung samples were processed and embedded with all lobes from each mouse in one paraffin block. […] A modified Ashcroft score (Hubner et al., 2008) was recorded for each field. The fibrotic index was calculated as the sum of the modified Ashcroft field scores divided by the number of fields examined. […]
Endpoint data on day 21 is shown as the average Ashcroft score per experimental group, with standard error of the mean (SEM). Statistical differences (defined as p<0.05) between groups were analyzed using t-tests in Prism version 7.0 software (GraphPad, La Jolla, Calif.). […]

For data set [3] the following is noted: cited from earlier work; for reduction of the rate of decline in lung function: patients with IPF; for adverse events / side effects: treatment of IPF.

With `Cn1c(=O)c(Oc2ccc(F)cc2F)cc2cnc(NC(CCO)CCO)nc21` [Pamapimod, 6-(2,4-Difluorophenoxy)-2-[3-hydroxy-1-(2-hydroxyethyl)-propylamino]-8-methyl-8H-pyrido[2,3-d]pyrimidin-7-one], in data set [1], the “adjusted significance (p) value, C-C Motif Chemokine Ligand 2 (Ccl2)” value is listed as “NS (NS = adjusted p value > 0.10)”; the “adjusted significance (p) value, C-C Motif Chemokine Ligand 3 (Ccl3)” value is “NS (NS = adjusted p value > 0.10)”; the “adjusted significance (p) value, C-C Motif Chemokine Ligand 4 (Ccl4)” value stood at 0.042; the “adjusted significance (p) value, C-C Motif Chemokine Ligand 7 (Ccl7)” value is reported as “NS (NS = adjusted p value > 0.10)”. In data set [1], the “adjusted significance (p) value, C-C Motif Chemokine Ligand 8 (Ccl8)” value was “NS (NS = adjusted p value > 0.10)”; the “adjusted significance (p) value, C-C Motif Chemokine Ligand 12 (Ccl12)” value was “NS (NS = adjusted p value > 0.10)”; the “adjusted significance (p) value, C-C Motif Chemokine Ligand 24 (Ccl24)” value is 0.032; the “adjusted significance (p) value, C-X-C Motif Chemokine Ligand 3 (Cxcl3)” value is “NS (NS = adjusted p value > 0.10)”. Moreover, in data set [1], the “adjusted significance (p) value, C-X-C Motif Chemokine Ligand 5 (Cxcl5)” value is “NS (NS = adjusted p value > 0.10)”; the “adjusted significance (p) value, C-X-C Motif Chemokine Ligand 10 (Cxcl10)” value is given as “NS (NS = adjusted p value > 0.10)”; the “adjusted significance (p) value, Interleukin 6 (IL6)” value is recorded as “NS (NS = adjusted p value > 0.10)”; the “adjusted significance (p) value, Interleukin 11 (IL11)” value was “NS (NS = adjusted p value > 0.10)”. In data set [1], the “adjusted significance (p) value, Interleukin 12B (IL12b)” value is listed as 0.023; the “adjusted significance (p) value, Interleukin 18 Receptor 1 (IL18r1)” value is “NS (NS = adjusted p value > 0.10)”; the “adjusted significance (p) value, TNF Receptor Superfamily Member 10b (Tnfrsf10b)” value is “NS (NS = adjusted p value > 0.10)”; the “adjusted significance (p) value, TNF Receptor Superfamily Member 11b (Tnfrsf11b)” value is recorded as “NS (NS = adjusted p value > 0.10)”. In addition, in data set [1], the “adjusted significance (p) value, TNF Superfamily Member 9 (Tnfsf9)” value is “NS (NS = adjusted p value > 0.10)”; the “adjusted significance (p) value, TNF Superfamily Member 18 (Tnfsf18)” value was “NS (NS = adjusted p value > 0.10)”; the “adjusted significance (p) value, Interleukin 36 Gamma (IL1f9)” value was “NS (NS = adjusted p value > 0.10)”; the “adjusted significance (p) value, TNF Superfamily Member 15 (Tnfsf15)” value was 0.0079. The “regulation of expression of members of the interleukin/interleukin receptor, TNF/TNF receptor, C-C and C-X-C motif chemokine families” value in data set [1] is “Neither pioglitazone or pamapimod single treatments significantly regulated expression”. Further, in data set [2], the “lung weights normalized to body weights” value is on record as “Substantially lower normalized lung weights” and the “fibrosis, group mean fibrotic index (modified Ashcroft score)” value is “Substantially less fibrosis”.

As for `CCc1ccc(CCOc2ccc(CC3SC(=O)NC3=O)cc2)nc1` (centres unmarked) [Pioglitazone], in data set [1], the “adjusted significance (p) value, C-C Motif Chemokine Ligand 2 (Ccl2)” value was “NS (NS = adjusted p value > 0.10)”; the “adjusted significance (p) value, C-C Motif Chemokine Ligand 3 (Ccl3)” value is recorded as “NS (NS = adjusted p value > 0.10)”; the “adjusted significance (p) value, C-C Motif Chemokine Ligand 4 (Ccl4)” value is on record as “NS (NS = adjusted p value > 0.10)”; the “adjusted significance (p) value, C-C Motif Chemokine Ligand 7 (Ccl7)” value is recorded as “NS (NS = adjusted p value > 0.10)”. For the same compound, in data set [1], the “adjusted significance (p) value, C-C Motif Chemokine Ligand 8 (Ccl8)” value was “NS (NS = adjusted p value > 0.10)”; the “adjusted significance (p) value, C-C Motif Chemokine Ligand 12 (Ccl12)” value is “NS (NS = adjusted p value > 0.10)”; the “adjusted significance (p) value, C-C Motif Chemokine Ligand 24 (Ccl24)” value is given as “NS (NS = adjusted p value > 0.10)”; the “adjusted significance (p) value, C-X-C Motif Chemokine Ligand 3 (Cxcl3)” value was “NS (NS = adjusted p value > 0.10)”. In data set [1], the “adjusted significance (p) value, C-X-C Motif Chemokine Ligand 5 (Cxcl5)” value is “NS (NS = adjusted p value > 0.10)”; the “adjusted significance (p) value, C-X-C Motif Chemokine Ligand 10 (Cxcl10)” value is on record as “NS (NS = adjusted p value > 0.10)”; the “adjusted significance (p) value, Interleukin 6 (IL6)” value is listed as “NS (NS = adjusted p value > 0.10)”; the “adjusted significance (p) value, Interleukin 11 (IL11)” value is “NS (NS = adjusted p value > 0.10)”. Moreover, in data set [1], the “adjusted significance (p) value, Interleukin 12B (IL12b)” value is listed as “NS (NS = adjusted p value > 0.10)”; the “adjusted significance (p) value, Interleukin 18 Receptor 1 (IL18r1)” value is “NS (NS = adjusted p value > 0.10)”; the “adjusted significance (p) value, TNF Receptor Superfamily Member 10b (Tnfrsf10b)” value was “NS (NS = adjusted p value > 0.10)”; the “adjusted significance (p) value, TNF Receptor Superfamily Member 11b (Tnfrsf11b)” value is “NS (NS = adjusted p value > 0.10)”. Also, in data set [1], the “adjusted significance (p) value, TNF Superfamily Member 9 (Tnfsf9)” value is “NS (NS = adjusted p value > 0.10)”; the “adjusted significance (p) value, TNF Superfamily Member 18 (Tnfsf18)” value is “NS (NS = adjusted p value > 0.10)”; the “adjusted significance (p) value, Interleukin 36 Gamma (IL1f9)” value is reported as “NS (NS = adjusted p value > 0.10)”; the “adjusted significance (p) value, TNF Superfamily Member 15 (Tnfsf15)” value was “NS (NS = adjusted p value > 0.10)”. Further, in data set [1], the “regulation of expression of members of the interleukin/interleukin receptor, TNF/TNF receptor, C-C and C-X-C motif chemokine families” value was “Neither pioglitazone or pamapimod single treatments significantly regulated expression”. In data set [2], the “lung weights normalized to body weights” value is listed as “Substantially lower normalized lung weights” and the “fibrosis, group mean fibrotic index (modified Ashcroft score)” value is recorded as “Substantially less fibrosis”.

Turning to `COC(=O)c1ccc2c(c1)NC(=O)/C2=C(\Nc1ccc(N(C)C(=O)CN2CCN(C)CC2)cc1)c1ccccc1` [nintedanib, Nintedanib], in data set [3], the “reduction of the rate of decline in lung function” value was “approximately 50%” and the “adverse events / side effects” value is recorded as “significant systemic adverse events”.

For the compound `Cc1ccc(=O)n(-c2ccccc2)c1` [pirfenidone, Pirfenidone], in data set [3], the “reduction of the rate of decline in lung function” value was “approximately 50%” and the “adverse events / side effects” value is reported as “significant side effects”.
